Among the data in patent publication US7417144B2, “Factor Xa inhibitors” (Hoffman-La Roche Inc., priority 2005, dated 2008) are Ki values, retold here.

SMILES strings stand for the structures.

In this experiment the target is T1, human factor Xa (Homo sapiens, UniProt P00742).
T1 construct: purchased Enzyme Research Laboratories
T1 sequence (P00742 235-488 limits assumed): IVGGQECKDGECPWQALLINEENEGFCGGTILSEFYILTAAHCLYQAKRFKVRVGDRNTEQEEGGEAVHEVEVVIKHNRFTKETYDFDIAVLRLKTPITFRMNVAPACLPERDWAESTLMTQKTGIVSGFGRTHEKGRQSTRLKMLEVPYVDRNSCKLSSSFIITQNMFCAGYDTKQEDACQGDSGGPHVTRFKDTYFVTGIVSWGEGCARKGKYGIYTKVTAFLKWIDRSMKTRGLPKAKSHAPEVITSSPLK
T1 sequence (P00742 41-179 partner limits assumed): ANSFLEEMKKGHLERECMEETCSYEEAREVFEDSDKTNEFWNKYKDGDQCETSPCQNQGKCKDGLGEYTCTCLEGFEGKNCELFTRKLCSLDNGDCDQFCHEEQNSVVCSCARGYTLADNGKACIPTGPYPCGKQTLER
The experiment in a line: Factor Xa chromogenic peptide substrate (S-2222) assay. It counts as biochemical. The conditions noted are these: apparent Ki from IC50 by Cheng-Prusoff; enzyme 3 nM, substrate S-2222, pH 7.8, room temperature. As for the experimental part: Factor Xa activity was measured spectrophotometrically in microtiter plates in a final volume of 150 μl using the following conditions: Inhibition of human factor Xa (Enzyme Research Laboratories) was tested at an enzyme concentration of 3 nM using the chromogenic substrate S-2222 (Chromogenix AB, Mölndal, Sweden) at […]. The reaction kinetics of the enzyme and the substrate were linear with both time and the enzyme concentration. The inhibitors were dissolved in DMSO and tested at various concentrations up to 100 μM. The inhibitors were diluted using HNPT buffer consisting of HEPES 100 mM, NaCl 140 mM, PEG 6000 0.1% and Tween 80 0.02%, pH 7.8. The cleavage of S-2222 by human factor Xa was followed at 405 nm for 5 minutes at room temperature. The velocity of the reaction was determined by the autoreader from the slope of the linear regression fit to 7 time points (1 minute). The initial velocity for each inhibitor concentration was determined by the slope of at least 4 time points in the linear phase by a linear regression fit […]. Apparent dissociation constants Ki were calculated according to Cheng and Prusoff [Cheng, Y. C.; Prusoff, W. H. Relationship between the inhibition constant (Ki) and the concentration of the inhibitor that causes 50 percent inhibition (IC50) of an enzyme reaction. Biochem. Pharmacol. 1973, 22, 3099-3108.] based on the IC50 and the respective Km, determined previously (Ki=IC50/(1+S/Km)). The Km for the substrate used was determined under the conditions of the test with at least 5 substrate concentrations ranging from 0.5 to 15 times Km. [Lottenberg R, Hall J A, Blinder M, Binder E P, Jackson C M., The action of thrombin on peptide p-nitroanilide substrates. Substrate selectivity and examination of hydrolysis under different reaction conditions. Biochim Biophys Acta. 1983 Feb. 15; 742(3):539-57]. According to Eadie [Eadie G.S. The inhibition of cholinesterase by physostigmine and prostigmine. J. Biol. Chem. 1942, 146, 85-93.], the Km for S-2222 amounted to 613 μM.
`O=C(Nc1ccc(-n2ccccc2=O)cc1F)C1Cc2cccnc2N1C(=O)Nc1ccc(Cl)cc1` (stereo not drawn) [Example 16, 2,3-Dihydro-pyrrolo[2,3-b]pyridine-1,2-dicarboxylic acid 1-[(4-chloro-phenyl)-amide]2-{[2-fluoro-4-(2-oxo-2H-pyridin-1-yl)-phenyl]-amide}]: the Ki is 51 nM.
For the molecule `Cn1ncc2c1CN(C(=O)Nc1ccc(Cl)cn1)[C@H]2C(=O)Nc1ccc(-n2ccccc2=O)cc1F` [Example 3, (R)-1-Methyl-4,6-dihydro-1H-pyrrolo[3,4-c]pyrazole-4,5-dicarboxylic acid 5-[(5-chloro-pyridin-2-yl)-amide]4-{[2-fluoro-4-(2-oxo-2H-pyridin-1-yl)-phenyl]-amide}], the Ki came out at 19 nM.
The figure for `O=C(Nc1ccc(-n2ccccc2=O)cc1F)C1Cc2cccnc2CN1C(=O)Nc1ccc(Cl)cc1` (stereo not drawn) [Example 18, 5,8-Dihydro-6H-[1,7]naphthyridine-6,7-dicarboxylic acid 7-[(4-chloro-phenyl)-amide]6-{[2-fluoro-4-(2-oxo-2H-pyridin-1-yl)-phenyl]-amide}] is 12 nM.
